Assay results as given in patent publication US20250332149A1, “PIPERIDINE COMPOUNDS AND PHARMACEUTICAL COMPOSITIONS” (Lumos Pharma, Inc., priority 2024, published 2025).
Where two headings read alike, the source gives them in different places.

How the values were obtained:
Format in all cases: in vivo, human
serum IGF-1 = experiment: Phase 1 study Part 2: PD, serum IGF-1 concentration fasted vs fed
Procedure: The serum IGF-1 concentration values remained stable over the sampling time interval post dose. At pre-dose, mean (SD) serum […] concentration values were 209.2 (54.28) ng/mL for Treatment A and 188.8 (26.11) ng/mL for Treatment B. At 24 h post-dose, the serum GH concentration value peaked at 244.7 (37.66) ng/mL in Treatment A and 220.8 (43.50) ng/mL in Treatment B.

[1] = Phase 1 study Part 2: food effect on plasma PK of LUM-201 capsule; settings: for % AUCex, Arithmetic Mean / % AUCex, Geometric Mean / Clast, Arithmetic Mean / Clast, Geometric Mean / tlag, Median / tlast, Median / λz, Arithmetic Mean / λz, Geometric Mean / AUC(0-inf) / AUC(0-t) / Cmax / half-life / Tmax: oral; for AUC(0-inf) / AUC(0-t) / Cmax / half-life / Tmax: human, plasma, po, 85.3 mg; for Tmax: read-out: tmax, Median
Description: This was a single center, open-label, randomized, Phase 1 study in healthy adult subjects. This study consisted of 2 parts: Part 1 was a 4-sequence, 4-treatment, 4 Treatment Periods, crossover study to determine the relative bioavailability of current tablets to new capsule formulations of LUM-201; Part 2 was a 2-sequence, 2-treatment, 2 Treatment Periods, crossover study to evaluate the food effect on the bioavailability of the new capsule formulation of LUM-201. An individual subject was allowed to participate in only 1 part (Part 1 or Part 2) of the study. Forty subjects were planned and enrolled in this study. • Part 1: A total of 28 subjects were planned and enrolled in Part 1. Part 1 consisted of 4 sequences, each having 4 Treatment Periods enrolling 7 subjects (1:1:1:1 ratio). During Treatment Periods 1 through 4, each subject received 4 single oral doses of LUM-201 drug product in a randomized, crossover order. • Part 2: A total of 12 subjects were planned and enrolled in Part 2. Part 2 consisted of 2 sequences, each having 2 Treatment Periods enrolling 6 subjects (1:1 ratio). Each subject received a single oral dose of LUM-201 at each Treatment Period. During Treatment Periods 1 and 2, each subject received 2 single oral doses of LUM-201 in a randomized, crossover order. • On Day 1 of Treatment Period 1, subjects were administered the assigned treatment (A or B) as randomized, followed by a washout of at least 3 days between Treatment Periods 1 and 2. Subjects stayed in-house (not discharged) between the Treatment Periods. • Treatment A was dosed at 85.3 mg capsule formulation of LUM-201 (intact capsule consumed unopened) consumed while subject was in a fasted state with 240 mL of water. • Treatment B was dosed at 85.3 mg capsule formulation of LUM-201 (intact capsule consumed unopened) consumed 30 minutes after start of a high-fat meal with 240 mL of water. • Subjects were discharged from the study center on the morning of Day 3 of Treatment Period 2 after the scheduled study assessments had been completed.
Fasted Treatment Period (Treatments A): Each subject received a single dose of LUM-201 in the morning of Day 1 after an overnight fast of at least 10 hours.
Treatment A was dosed at 85.3 mg capsule formulation of LUM-201 (intact capsule consumed unopened) consumed while subject was in a fasted state with 240 mL of water.
Fed Treatment Period (Treatment B): On the morning of Day 1, following an overnight fast of at least 10 hours, a high-fat breakfast (approximately 800 to 1000 calories) was served approximately 30 minutes before the planned dosing time. Subjects were required to eat the entire breakfast in less than 30 minutes.
Treatment B was dosed at 85.3 mg capsule formulation of LUM-201 (intact capsule consumed unopened) consumed 30 minutes after the start of the high-fat breakfast with 240 mL of water according to the FDA Guidance 20225. […]

[2] = test system: serum growth hormone (GH); experiment: Phase 1 study Part 2: PD, serum GH concentration fasted vs fed; settings: for serum GH concentration, mean (SD): pre-dose
Description: • Part 1: To evaluate PD (GH response) of the new LUM-201 formulation as capsule (test). • Part 2: To measure PD (GH response) to LUM-201 administered as capsule (test) in fasted versus fed state. PD Results (pt 2): Following the administration of LUM-201, the serum GH concentration values increased post dose. At pre-dose, mean (SD) serum GH concentration values were 0.2121 (0.2192) ng/mL in Treatment A and 0.1088 (0.09518) ng/mL in Treatment B. The serum GH concentration value peaked at 22.18 (22.24) ng/mL in Treatment A at 1 h post-dose and 14.10 (13.48) ng/mL in Treatment B at 1.5 h post-dose. The serum GH concentration values in Treatment A were consistently higher compared to Treatment B over time and approached the peak concentration sooner at 1 h post-dose.

[3] = Part 2, Treatment A (fasted state) and Treatment B (fed state)
[4] = 85.3 mg capsule with food vs fasted, statistically significant
[5] = Part 2, Treatment A: 85.3 mg capsule, fasted
[6] = Part 2, Treatment B: 85.3 mg capsule, 30 minutes after start of high-fat meal

food effect on tmax ([1]; 85.3 mg capsule with food vs fasted): no significant effect | increase of AUC0-inf with food [1, 4]: 17.8% | increase of AUC0-last with food [1, 4]: 17.8% | increase of Cmax with food [1, 4]: 64.4% | % AUCex, Arithmetic Mean [1, 5]: 1.868% | % AUCex, Geometric Mean [1, 5]: 1.689% | Clast, Arithmetic Mean [1, 5]: 0.7762 ng/mL | Clast, Geometric Mean [1, 5]: 0.7216 ng/mL | tlag, Median [1, 5]: 0.2489 h | tlast, Median [1, 5]: 48.03 h | λz, Arithmetic Mean [1, 5]: 0.0874 h⁻¹ | λz, Geometric Mean [1, 5]: 0.0848 h⁻¹ | % AUCex, Arithmetic Mean [1, 6]: 2.081% | % AUCex, Geometric Mean [1, 6]: 1.845% | Clast, Arithmetic Mean [1, 6]: 0.9223 ng/mL | Clast, Geometric Mean [1, 6]: 0.8783 ng/mL | tlag, Median [1, 6]: 0.2906 h | tlast, Median [1, 6]: 48.00 h | λz, Arithmetic Mean [1, 6]: 0.0829 h⁻¹ | λz, Geometric Mean [1, 6]: 0.0803 h⁻¹ | AUC(0-inf) ([1]; Part 2, Treatment A: 85.3 mg capsule, fasted, read-out: AUC0-inf, Arithmetic Mean): 538 ng·h/mL | AUC(0-inf) ([1]; Part 2, Treatment A: 85.3 mg capsule, fasted, read-out: AUC0-inf, Geometric Mean): 504 ng·h/mL | AUC(0-t) ([1]; Part 2, Treatment A: 85.3 mg capsule, fasted, read-out: AUC0-last, Arithmetic Mean): 528 ng·h/mL | AUC(0-t) ([1]; Part 2, Treatment A: 85.3 mg capsule, fasted, read-out: AUC0-last, Geometric Mean): 494 ng·h/mL | Cmax ([1]; Part 2, Treatment A: 85.3 mg capsule, fasted, read-out: Cmax, Arithmetic Mean): 87.3 ng/mL | Cmax ([1]; Part 2, Treatment A: 85.3 mg capsule, fasted, read-out: Cmax, Geometric Mean): 80.5 ng/mL | half-life ([1]; Part 2, Treatment A: 85.3 mg capsule, fasted, read-out: t1/2, Arithmetic Mean (converted)): 8.39 h | half-life ([1]; Part 2, Treatment A: 85.3 mg capsule, fasted, read-out: t1/2, Geometric Mean (converted)): 8.17 h | Tmax [1, 5]: 1.53 h | AUC(0-inf) ([1]; Part 2, Treatment B: 85.3 mg capsule, 30 minutes after start of high-fat meal, read-out: AUC0-inf, Arithmetic Mean): 626 ng·h/mL | AUC(0-inf) ([1]; Part 2, Treatment B: 85.3 mg capsule, 30 minutes after start of high-fat meal, read-out: AUC0-inf, Geometric Mean): 591 ng·h/mL | AUC(0-t) ([1]; Part 2, Treatment B: 85.3 mg capsule, 30 minutes after start of high-fat meal, read-out: AUC0-last, Arithmetic Mean): 614 ng·h/mL | AUC(0-t) ([1]; Part 2, Treatment B: 85.3 mg capsule, 30 minutes after start of high-fat meal, read-out: AUC0-last, Geometric Mean): 579 ng·h/mL | Cmax ([1]; Part 2, Treatment B: 85.3 mg capsule, 30 minutes after start of high-fat meal, read-out: Cmax, Arithmetic Mean): 151 ng/mL | Cmax ([1]; Part 2, Treatment B: 85.3 mg capsule, 30 minutes after start of high-fat meal, read-out: Cmax, Geometric Mean): 134 ng/mL | half-life ([1]; Part 2, Treatment B: 85.3 mg capsule, 30 minutes after start of high-fat meal, read-out: t1/2, Arithmetic Mean (converted)): 8.87 h | half-life ([1]; Part 2, Treatment B: 85.3 mg capsule, 30 minutes after start of high-fat meal, read-out: t1/2, Geometric Mean (converted)): 8.61 h | Tmax [1, 6]: 1.5 h
Structure (SMILES): CC(C)(N)C(=O)N[C@H](COCc1ccccc1)C(=O)N1CCC2(CC1)CN(S(C)(=O)=O)c1ccccc12 [LUM-201, N-[1(R)-[(1,2-dihydro-1-methanesulfonylspiro[3H-indole-3,4′-piperdin]-yl)carbonyl]-2-(phenylmethyloxy)ethyl]-2-amino-2-methylpropanamide methanesulfonate]
serum IGF-1 concentration (serum IGF-1; 24 h post-dose, Part 2, Treatment A: 85.3 mg capsule, fasted): 244.7 (37.66) ng/mL | serum IGF-1 concentration (serum IGF-1; 24 h post-dose, Part 2, Treatment B: 85.3 mg capsule after high-fat meal): 220.8 (43.50) ng/mL | serum IGF-1 concentration values and trend, fasted vs fed (serum IGF-1; [3]): comparable | serum IGF-1 concentration (serum IGF-1; pre-dose, Part 2, Treatment A: 85.3 mg capsule, fasted): 209.2 (54.28) ng/mL | serum IGF-1 concentration (serum IGF-1; pre-dose, Part 2, Treatment B: 85.3 mg capsule after high-fat meal): 188.8 (26.11) ng/mL | serum GH concentration, peak, mean (SD) ([2]; 1 h post-dose, Part 2, Treatment A: 85.3 mg capsule, fasted): 22.18 (22.24) ng/mL | serum GH concentration, peak, mean (SD) ([2]; 1.5 h post-dose, Part 2, Treatment B: 85.3 mg capsule after high-fat meal): 14.10 (13.48) ng/mL | serum GH concentrations 1.5 hours after administration, fasted vs fed [2, 3]: comparable | serum GH concentration, mean (SD) [2, 5]: 0.2121 (0.2192) ng/mL | serum GH concentration, mean (SD) ([2]; Part 2, Treatment B: 85.3 mg capsule after high-fat meal): 0.1088 (0.09518) ng/mL
